Experimental data from publication PMC12741935 (Alzheimer's & Dementia, 2025).

Key:
NfL, Aβ40, Aβ42 = assay: Plasma NfL and plasma/brain Aβ40, Aβ42 ELISA in chronically treated 5xFAD mice; format: in vivo; details: chronic 100 mg/kg BID PO
Method: V-PLEX Aβ Peptide Panel 1 (4G8) Kit (Meso Scale Diagnostics, LLC #[…]) was used for Aβ40/Aβ42 detection and S-PLEX Neurofilament L Kit (Meso Scale Diagnostics, LLC # […]) was used for NfL analysis, according to the manufacturer's protocols. […] The supernatant recovered was the DEA soluble fraction containing the soluble Aβ isoforms. […] For ELISA, the DEA-soluble fraction was diluted at 10 times and 40 times and the insoluble fraction was diluted at 40 times and 300 times. The assay plates were read by MESO […] plate reader and analyzed using Discovery Workbench Software (MesoScale Discovery). All samples were run in duplicate and averaged for analysis. Brain concentrations of the soluble and insoluble Aβ were normalized to total protein. All samples from a single plasma collection timepoint were run together on the appropriate MSD plate with the kit provided calibration standards.

[1] = In vivo PK in CD-1 mice, plasma and brain by LC-MS/MS; details: for Mean concentration in brain: ± SD, n=3; for AUC(0-inf): AUCInf
Method: Initial in vivo PK studies to confirm oral bioavailability and brain exposure were conducted at Pharmaron (Beijing, China) in non‐fasted male CD‐1 mice (6–8 weeks of age; sourced from Vital River). […] The dose volume was 10 mL/kg.
Next, we evaluated brain and plasma PK of 10 mg/kg (1 hour pre, IP, n = 3). Experiments then were conducted to confirm and extend initial PK data and evaluate brain and plasma levels at doses of 1, 10, and 100 mg/kg after oral administration at 1, 3, and 8 hours post dose (n = 3 per dose per timepoint).
Serial blood was collected via the dorsal metatarsal vein into ethylenediaminetetraacetic acid‐K2 coated tubes and centrifuged at 4°C x 4000 g for 5 minutes to obtain plasma that was aliquoted and stored at −80°C until analysis. For terminal studies, blood was collected via cardiac puncture under isoflurane anesthesia. Whole brain was homogenized at a ratio of 1:3 with PBS (W:V, 1:3).
For sample analysis liquid chromatography tandem mass spectrometry (LC‐MS/MS) was conducted using an AB Sciex Triple Quad 5500 LC/MS/MS instrument. Briefly, the desired serial concentrations of working solutions were achieved by diluting stock solution of analyte with 50% acetonitrile in water solution. Ten µL of working solutions (0.5, 1, 2, 5, 10, 50, 100, 500, and 1000 ng/mL) were added to 10 µL of the blank CD1 mouse plasma/brain homogenate to achieve calibration standards of 0.5 to 1000 ng/mL (0.5, 1, 2, 5, 10, 50, 100, 500, and 1000 ng/mL) in a total volume of 20 µL. Five quality control (QC) samples at 1 ng/mL, 2 ng/mL, 5 ng/mL, 50 ng/mL, and 800 ng/mL for plasma/brain homogenate were prepared independently of those used for the calibration curves. These QC samples were prepared on the day of analysis in the same way as calibration standards. Twenty µL standards, 20 µL QC samples, and 20 µL unknown samples (10 µL plasma/brain homogenate with 10 µL blank solution) were added to 200 µL of acetonitrile containing internal standard (IS) mixture for precipitating protein, respectively. The samples were vortexed for 30 seconds followed by centrifugation at 4°C x 2600 g for 15 minutes. The supernatant was diluted at a ratio of 1:2 with H2O (V/V, 1:2), 5 µL of diluted supernatant was injected into the LC‐MS/MS system for quantitative analysis. The lower limit of quantification (LLOQ) was 0.5 ng/mL for plasma and 1 ng/mL for brain. PK parameters were estimated by non‐compartmental model analysis using WinNonlin 8.3.

[2] = male, CD-1, mouse, brain, oral, 10 mg/kg
[3] = male, CD-1, mouse, brain, oral, 100 mg/kg
[4] = male, CD-1, mouse, brain, po, 10 mg/kg, 10 mg/kg PO
[5] = male, CD-1, mouse, brain, po, 100 mg/kg, 100 mg/kg PO
[6] = male, CD-1, mouse, plasma, ip, 10 mg/kg, 10 mg/kg IP, sampling 0.5, 1, 3, 5 h
[7] = male, CD-1, mouse, plasma, po, 1 mg/kg, 1 mg/kg PO
[8] = male, CD-1, mouse, plasma, po, 10 mg/kg, 10 mg/kg PO, sampling 0.5, 1, 3, 5 h
[9] = male, CD-1, mouse, plasma, po, 10 mg/kg, 10 mg/kg PO, sampling 1, 3, 8 h
[10] = male, CD-1, mouse, plasma, po, 100 mg/kg, 100 mg/kg PO
[11] = plasma, 10 mg/kg IP, sampling 0.5, 1, 3, 5 h
[12] = plasma, 10 mg/kg PO, sampling 0.5, 1, 3, 5 h
[13] = plasma, 10 mg/kg PO, sampling 1, 3, 8 h

CC(C)NC(=O)N1CC[C@H](NC2=Nc3cc(F)ccc3N(CC(F)F)c3ccc(Cl)cc32)C1 [NVS‐PAK1‐1, (S)‐3‐([2‐chloro‐5‐(2,2‐difluoroethyl)‐8‐fluoro‐5H‐dibenzo[b,e][1,4]diazepin‐11‐yl]amino)‐N‐isopropylpyrrolidine‐1‐carboxamide]
brain amyloid accumulation, soluble (DEA) and insoluble (FA) fractions (NfL, Aβ40, Aβ42; 5xFAD): mirrored Aβ plasma values | plasma NfL (NfL, Aβ40, Aβ42; young, aged, male, or female 5xFAD cohorts): did not significantly lower | Mean concentration in brain ([1]; 1 mg/kg PO, 1 h post dose): BLOQ | Mean concentration in brain ([1]; 1 mg/kg PO, 3 h post dose): BLOQ | Mean concentration in brain ([1]; 1 mg/kg PO, 8 h post dose): BLOQ | concentration in brain ([1]; 1 mg/kg PO, at 1, 3 and 8 hours post dose): < 1 ng/mL | Mean concentration in brain ([1]; 10 mg/kg PO, 8 h post dose): BLOQ | Mean concentration in brain ([1]; 100 mg/kg PO, 8 h post dose): detectable | AUC_%Extrap_obs ([1]; brain, 10 mg/kg PO): 15.3% | AUClast/D ([1]; brain, 10 mg/kg PO): 5.74 h·ng/mL per mg/kg | AUC_%Extrap_obs ([1]; brain, 100 mg/kg PO): 1.34% | AUClast/D ([1]; brain, 100 mg/kg PO): 13.8 h·ng/mL per mg/kg | concentration at 1 h ([1]; male, CD-1, mouse, brain, intraperitoneal, 10 mg/kg): 112 ± 14 ng/g | concentration at 1 h [1, 2]: 33.2 ± 13 ng/g | concentration at 3 h [1, 2]: 7.62 ± 1.16 ng/g | concentration at 1 h [1, 3]: 759 ± 379 ng/g | concentration at 3 h [1, 3]: 61.6 ± 3.5 ng/g | concentration at 8 h [1, 3]: 14.3 ± 5.4 ng/g | AUC(0-inf) [1, 4]: 67.8 ng·h/mL | AUC(0-t) ([1]; male, CD-1, mouse, brain, po, 10 mg/kg, AUClast, 10 mg/kg PO): 57.4 ng·h/mL | Cmax [1, 4]: 33.2 ng/mL | MRT inf ([1]; male, CD-1, mouse, brain, po, 10 mg/kg, MRTInf_obs, 10 mg/kg PO): 1.74 h | half-life ([1]; male, CD-1, mouse, brain, po, 10 mg/kg, T1/2, brain, 10 mg/kg PO): 0.942 h | Tmax [1, 4]: 1 h | AUC(0-inf) [1, 5]: 1400 ng·h/mL | AUC(0-t) ([1]; male, CD-1, mouse, brain, po, 100 mg/kg, AUClast, 100 mg/kg PO): 1380 ng·h/mL | Cmax [1, 5]: 759 ng/mL | half-life ([1]; male, CD-1, mouse, brain, po, 100 mg/kg, T1/2, brain, 100 mg/kg PO): 1.23 h | Tmax [1, 5]: 1 h | Kp at 1 h ([1]; male, CD-1, mouse, brain/plasma, ip, 10 mg/kg): 0.25 | Kp ([1]; male, CD-1, mouse, brain/plasma, po, 10 mg/kg): 0.21 | Kp ([1]; male, CD-1, mouse, brain/plasma, po, 100 mg/kg): 0.302 | AUC(0-t) ([1]; male, CD-1, mouse, in vivo, po, 1 mg/kg): 27.2 ng·h/mL | MRT inf ([1]; male, CD-1, mouse, in vivo, po, 100 mg/kg): 1.56 h | concentration at 1 h ([1]; male, CD-1, mouse, plasma, intraperitoneal, 10 mg/kg): 448 ± 65 ng/mL | AUC(0-inf) [1, 6]: 1170 ng·h/mL | AUC(0-t) ([1]; male, CD-1, mouse, plasma, ip, 10 mg/kg, AUClast, 10 mg/kg IP, sampling 0.5, 1, 3, 5 h): 1150 ng·h/mL | Cmax [1, 6]: 878 ng/mL | MRT inf ([1]; male, CD-1, mouse, plasma, ip, 10 mg/kg, MRTInf_obs, 10 mg/kg IP, sampling 0.5, 1, 3, 5 h): 1.1 h | half-life ([1]; male, CD-1, mouse, plasma, ip, 10 mg/kg, T1/2, plasma, 10 mg/kg IP, sampling 0.5, 1, 3, 5 h): 0.814 h | Tmax [1, 6]: 0.5 h | AUC(0-inf) [1, 7]: 31.6 ng·h/mL | Cmax [1, 7]: 8.1 ng/mL | MRT inf ([1]; male, CD-1, mouse, plasma, po, 1 mg/kg, MRTInf_obs, 1 mg/kg PO): 3.92 h | half-life ([1]; male, CD-1, mouse, plasma, po, 1 mg/kg, T1/2, plasma, 1 mg/kg PO): 2.62 h | Tmax [1, 7]: 1 h | AUC(0-inf) [1, 8]: 252 ng·h/mL | AUC(0-inf) [1, 9]: 280 ng·h/mL | AUC(0-t) ([1]; male, CD-1, mouse, plasma, po, 10 mg/kg, AUClast, 10 mg/kg PO, sampling 0.5, 1, 3, 5 h): 223 ng·h/mL | AUC(0-t) ([1]; male, CD-1, mouse, plasma, po, 10 mg/kg, AUClast, 10 mg/kg PO, sampling 1, 3, 8 h): 274 ng·h/mL | Cmax [1, 8]: 130 ng/mL | Cmax [1, 9]: 112 ng/mL | MRT inf ([1]; male, CD-1, mouse, plasma, po, 10 mg/kg, MRTInf_obs, 10 mg/kg PO, sampling 0.5, 1, 3, 5 h): 2.19 h | MRT inf ([1]; male, CD-1, mouse, plasma, po, 10 mg/kg, MRTInf_obs, 10 mg/kg PO, sampling 1, 3, 8 h): 2.1 h | half-life ([1]; male, CD-1, mouse, plasma, po, 10 mg/kg, T1/2, plasma, 10 mg/kg PO, sampling 0.5, 1, 3, 5 h): 1.56 h | half-life ([1]; male, CD-1, mouse, plasma, po, 10 mg/kg, T1/2, plasma, 10 mg/kg PO, sampling 1, 3, 8 h): 1.4 h | Tmax [1, 8]: 0.5 h | Tmax [1, 9]: 1 h | AUC(0-inf) [1, 10]: 4720 ng·h/mL | AUC(0-t) ([1]; male, CD-1, mouse, plasma, po, 100 mg/kg, AUClast, 100 mg/kg PO): 4570 ng·h/mL | Cmax [1, 10]: 2330 ng/mL | MRT inf ([1]; male, CD-1, mouse, plasma, po, 100 mg/kg, MRTInf_obs, 100 mg/kg PO): 1.91 h | half-life ([1]; male, CD-1, mouse, plasma, po, 100 mg/kg, T1/2, plasma, 100 mg/kg PO): 1.5 h | Tmax [1, 10]: 1 h | AUC_%Extrap_obs ([1]; plasma, 1 mg/kg PO): 14.0% | AUClast/D ([1]; plasma, 1 mg/kg PO): 27.2 h·ng/mL per mg/kg | AUC_%Extrap_obs [1, 11]: 1.62% | AUClast/D [1, 11]: 115 h·ng/mL per mg/kg | AUC_%Extrap_obs [1, 12]: 11.3% | AUClast/D [1, 12]: 22.3 h·ng/mL per mg/kg | AUC_%Extrap_obs [1, 13]: 2.29% | AUClast/D [1, 13]: 27.4 h·ng/mL per mg/kg | AUC_%Extrap_obs ([1]; plasma, 100 mg/kg PO): 3.08% | AUClast/D ([1]; plasma, 100 mg/kg PO): 45.7 h·ng/mL per mg/kg
